# Measurements published in paper PMC3885398, “Evaluation of the Antitumor Effects of BPR1J-340, a Potent and Selective FLT3 Inhibitor, Alone or in Combination with an HDAC Inhibitor, Vorinostat, in AML Cancer” (PLoS ONE, 2014).
# Columns and labels:
# MOLM-13 tumor xenograft = system: MOLM-13 tumor xenograft; design: method as in PMID 22187040; conditions: 25 mg/kg, same MOLM-13 model; cited from earlier work
# MOLM-13 cells = assay: Apoptosis assay, Annexin V-FITC/PI flow cytometry; format: cell-based, human; conditions: MOLM-13 (FLT3-ITD-expressing cells), 300 nM, 48 hours
# Protocol: (§1) The number of apoptotic cells was determined by fluorescence-activated cell sorting (FACS) analyses using Annexin V-FITC staining. In brief, cells were centrifuged after drug treatment and resuspended in 1× binding buffer containing 2.5 mM of calcium (Ca2+). Cells were incubated with Annexin V-FITC (Biolegend, San Diego, CA) and propidium iodide (PI) (Sigma–Aldrich, St. Louis, MO) in the dark at room temperature for 20 minutes. Next, samples were reconstituted with 1× binding buffer and subjected to flow cytometry FACS Calibus (BD Bioscience, Franklin Lakes, NJ) to analyze the Annexin V-positive population using CellQuest Pro (BD Bioscience) and FlowJo (Treestar, Inc., San Carlos, CA).
# (§2) Some histone deacetylase inhibitors (HDACi) will enhance the cytotoxic activity of FLT3 inhibitor on FLT3-ITD^+ cell via degradation of FLT3-ITD and STAT5 [24], [26], [36], [37]. […]
# (§3) Figure 4 The effect of BPR1J-340 and SAHA versus drug combination on AML FLT3-ITD+ cells. […] (A) Viable cells were counted after staining with trypan blue dye at indicated time point (B) At 48-hours after treatment, cells were stained with FITC-labeled annexin V and propidium iodide and percentages of apoptotic cells were analyzed by flow cytometry. […]
# MV4;11 cells = assay: Apoptosis assay, Annexin V-FITC/PI flow cytometry; format: cell-based, human; conditions: MV4;11 (FLT3-ITD-expressing cells), 300 nM, 48 hours
# Protocol: as §1, §2, §3
compound,measurement,setting,value
"CN1CCN(c2ccc(C(=O)Nc3cc(-c4cccc(NS(=O)(=O)c5ccccc5)c4)n[nH]3)cc2)CC1 [BPR1J-097, N1-(3-3-[(phenylsulfonyl)amino]phenyl-1H-5-pyrazolyl)-4-(4-methylpiperazino)benzamide]","CR, animals",MOLM-13 tumor xenograft,1/8
"O=C(CCCCCCC(=O)Nc1ccccc1)NO [SAHA, vorinostat]",rate of apoptotic cells versus control,MOLM-13 cells,did not increase
same,rate of apoptotic cells versus control,MV4;11 cells,did not increase
